Columns and labels:
Type in all cases: functional
Conditions in all cases: time 16-20 hrs
Staphylococcus aureus [1] = assay: Antimicrobial activity against Staphylococcus aureus ATCC 25923 assessed as inhibition of microbial growth incubated for 16 to 20 hrs under ambient air condition by broth microdilution assay
Staphylococcus aureus [2] = assay: Antimicrobial activity against methicillin-resistant Staphylococcus aureus assessed as inhibition of microbial growth incubated for 16 to 20 hrs under ambient air condition by broth microdilution assay
Enterococcus faecium = assay: Antimicrobial activity against vancomycin-resistant Enterococcus faecium assessed as inhibition of microbial growth incubated for 16 to 20 hrs under ambient air condition by broth microdilution assay

SMILES	MIC (Staphylococcus aureus [1]) [µg/mL]	MIC (Staphylococcus aureus [2]) [µg/mL]	MIC (Enterococcus faecium) [µg/mL]
C/C=C1\NC(=O)[C@H]([C@@H](C)O)NC(=O)c2csc(n2)-c2cc(O)c(-c3nc(C(=O)NC(CNc4ccccc4F)C(N)=O)cs3)nc2-c2csc(n2)[C@@H]2CSC(=O)c3[nH]c4cccc(c4c3C)COC(=O)[C@H](O)C[C@H](NC(=O)c3csc1n3)c1nc(cs1)C(=O)N2 (stereo partly drawn)	0.062	< 0.0039	0.015
C/C=C1\NC(=O)[C@H]([C@@H](C)O)NC(=O)c2csc(n2)-c2cc(O)c(-c3nc(C(=O)NC(CNc4ccc(C)cc4)C(N)=O)cs3)nc2-c2csc(n2)[C@@H]2CSC(=O)c3[nH]c4cccc(c4c3C)COC(=O)[C@H](O)C[C@H](NC(=O)c3csc1n3)c1nc(cs1)C(=O)N2 (stereo partly drawn)	0.062	0.0078	0.031
C/C=C1\NC(=O)[C@H]([C@@H](C)O)NC(=O)c2csc(n2)-c2cc(O)c(-c3nc(C(=O)NC(CNc4ccc(C(F)(F)F)cc4)C(N)=O)cs3)nc2-c2csc(n2)[C@@H]2CSC(=O)c3[nH]c4cccc(c4c3C)COC(=O)[C@H](O)C[C@H](NC(=O)c3csc1n3)c1nc(cs1)C(=O)N2 (stereo partly drawn)	0.031	< 0.0039	0.015
C/C=C1\NC(=O)[C@H]([C@@H](C)O)NC(=O)c2csc(n2)-c2cc(O)c(-c3nc(C(=O)NC(CNc4ccccc4C)C(N)=O)cs3)nc2-c2csc(n2)[C@@H]2CSC(=O)c3[nH]c4cccc(c4c3C)COC(=O)[C@H](O)C[C@H](NC(=O)c3csc1n3)c1nc(cs1)C(=O)N2 (stereo partly drawn)	0.015	< 0.0039	0.015
C/C=C1\NC(=O)[C@H]([C@@H](C)O)NC(=O)c2csc(n2)-c2cc(O)c(-c3nc(C(=O)NC(CNc4cccc(C(F)(F)F)c4)C(N)=O)cs3)nc2-c2csc(n2)[C@@H]2CSC(=O)c3[nH]c4cccc(c4c3C)COC(=O)[C@H](O)C[C@H](NC(=O)c3csc1n3)c1nc(cs1)C(=O)N2 (stereo partly drawn)	0.062	0.0078	0.031
C/C=C1\NC(=O)[C@H]([C@@H](C)O)NC(=O)c2csc(n2)-c2cc(O)c(-c3nc(C(=O)NC(CNc4ccc(F)cc4)C(N)=O)cs3)nc2-c2csc(n2)[C@@H]2CSC(=O)c3[nH]c4cccc(c4c3C)COC(=O)[C@H](O)C[C@H](NC(=O)c3csc1n3)c1nc(cs1)C(=O)N2 (stereo partly drawn)	0.031	0.015	0.031
C/C=C1\NC(=O)[C@H]([C@@H](C)O)NC(=O)c2csc(n2)-c2cc(O)c(-c3nc(C(=O)NC(CNc4ccccc4I)C(N)=O)cs3)nc2-c2csc(n2)[C@@H]2CSC(=O)c3[nH]c4cccc(c4c3C)COC(=O)[C@H](O)C[C@H](NC(=O)c3csc1n3)c1nc(cs1)C(=O)N2 (stereo partly drawn)	0.062	0.0078	0.015
C/C=C1\NC(=O)[C@H]([C@@H](C)O)NC(=O)c2csc(n2)-c2cc(O)c(-c3nc(C(=O)NC(CNc4ccccc4C(F)(F)F)C(N)=O)cs3)nc2-c2csc(n2)[C@@H]2CSC(=O)c3[nH]c4cccc(c4c3C)COC(=O)[C@H](O)C[C@H](NC(=O)c3csc1n3)c1nc(cs1)C(=O)N2 (stereo partly drawn)	0.031	< 0.0039	0.015
C/C=C1\NC(=O)[C@H]([C@@H](C)O)NC(=O)c2csc(n2)-c2cc(O)c(-c3nc(C(=O)NC(CNc4cccc(F)c4)C(N)=O)cs3)nc2-c2csc(n2)[C@@H]2CSC(=O)c3[nH]c4cccc(c4c3C)COC(=O)[C@H](O)C[C@H](NC(=O)c3csc1n3)c1nc(cs1)C(=O)N2 (stereo partly drawn)	0.031	0.015	0.031
C/C=C1\NC(=O)[C@H]([C@@H](C)O)NC(=O)c2csc(n2)-c2cc(O)c(-c3nc(C(=O)NC(CNc4ccc(Br)cc4)C(N)=O)cs3)nc2-c2csc(n2)[C@@H]2CSC(=O)c3[nH]c4cccc(c4c3C)COC(=O)[C@H](O)C[C@H](NC(=O)c3csc1n3)c1nc(cs1)C(=O)N2 (stereo partly drawn)	0.062	0.015	0.031
C/C=C1\NC(=O)[C@H]([C@@H](C)O)NC(=O)c2csc(n2)-c2cc(O)c(-c3nc(C(=O)NC(CNc4cccc(I)c4)C(N)=O)cs3)nc2-c2csc(n2)[C@@H]2CSC(=O)c3[nH]c4cccc(c4c3C)COC(=O)[C@H](O)C[C@H](NC(=O)c3csc1n3)c1nc(cs1)C(=O)N2 (stereo partly drawn)	0.031	< 0.0039	0.0078
C/C=C1\NC(=O)[C@H]([C@@H](C)O)NC(=O)c2csc(n2)-c2cc(O)c(-c3nc(C(=O)NC(CNc4cccc(C)c4)C(N)=O)cs3)nc2-c2csc(n2)[C@@H]2CSC(=O)c3[nH]c4cccc(c4c3C)COC(=O)[C@H](O)C[C@H](NC(=O)c3csc1n3)c1nc(cs1)C(=O)N2 (stereo partly drawn)	0.031	< 0.0039	0.015
C=C(NC(=O)c1csc(-c2nc3c(cc2O)-c2nc(cs2)C(=O)N[C@@H]([C@@H](C)O)C(=O)N/C(=C\C)c2nc(cs2)C(=O)N[C@H]2C[C@@H](O)C(=O)OCc4cccc5[nH]c(c(C)c45)C(=O)SC[C@H](NC(=O)c4csc2n4)c2nc-3cs2)n1)C(N)=O	0.062	0.0078	0.031
C/C=C1\NC(=O)[C@H]([C@@H](C)O)NC(=O)c2csc(n2)-c2cc(O)c(-c3nc(C(=O)NC(CNc4ccccc4Br)C(N)=O)cs3)nc2-c2csc(n2)[C@@H]2CSC(=O)c3[nH]c4cccc(c4c3C)COC(=O)[C@H](O)C[C@H](NC(=O)c3csc1n3)c1nc(cs1)C(=O)N2 (stereo partly drawn)	0.015	< 0.0039	0.015
C/C=C1\NC(=O)[C@H]([C@@H](C)O)NC(=O)c2csc(n2)-c2cc(O)c(-c3nc(C(=O)NC(CNc4ccc(I)cc4)C(N)=O)cs3)nc2-c2csc(n2)[C@@H]2CSC(=O)c3[nH]c4cccc(c4c3C)COC(=O)[C@H](O)C[C@H](NC(=O)c3csc1n3)c1nc(cs1)C(=O)N2 (stereo partly drawn)	0.062	< 0.0039	0.015
C/C=C1\NC(=O)[C@H]([C@@H](C)O)NC(=O)c2csc(n2)-c2cc(O)c(-c3nc(C(=O)NC(CNc4cccc(Br)c4)C(N)=O)cs3)nc2-c2csc(n2)[C@@H]2CSC(=O)c3[nH]c4cccc(c4c3C)COC(=O)[C@H](O)C[C@H](NC(=O)c3csc1n3)c1nc(cs1)C(=O)N2 (stereo partly drawn)	0.062	0.0078	0.031
